Reference: patent US20240148745A1, “COMPOUNDS FOR USE IN PROGRESSIVE MULTIPLE SCLEROSIS” (FONDAZIONE CENTRO SAN RAFFAELE, priority 2021, published 2024)

Legend:
[1] = system: iPSC-derived neurons (DIV45); conditions: human
Description: This protocol was modified from Yuchen Qi et al.^32 First, neural progenitors (NPCs) were generated from hiPSCs by dual-SMAD inhibition. Shortly, at day 0 iPSC colonies (confluent at 70-80%) were washed with PBS Dulbecco's w/o Calcium w/o Magnesium (Euroclone) and hiPSCs' maintenance medium (mTeSR™, StemCell Technologies) was replaced with neural induction medium composed by DMEM/F12 plus N2 medium (1×), B27 without RA supplement (0.5×) (Life Technology), added with SB431542 (10 μM) and LDN (500 nM). This medium was kept until day 4 (“induction”). At day 4, cells were splitted (1:3) with the same induction medium using Accutase®/Accumax™ (StemCell Technologies) dissociated solution. Entire medium was replaced daily up to days 14-16 until rosette formation was observed (“patterning”). At days 14-16, cells were detached by Accutase®/Accumax™ and re-plated on polyornitine/laminin/fibronectin coated MW96 or MW24 plates for terminal differentiation in Neurobasal medium supplemented with B27 (0.5×), BDNF (20 ng/ml), dbcAMP (500 μM), ascorbic acid (200 μM), PD0325901 (1 μM), SU5402 (5 μM), CHIR (3 μM), human recombinant insulin (5 μg/ml), supplemented with RI (Rock inhibitor) (1:3000) to reduce dissociation induced apoptosis. The half of differentiation medium was changed every 3-4 days, supplemented with 1 μg/ml laminin and DAPT (1-2 μM) until terminal maturation of neuronal population (MAP2+ cells). Cultures were characterized by immunocytochemistry and qRT-PCR and neuroprotective experiments were performed on days 30-40 of differentiation.
Evaluation of cytotoxicity of 160 selected compounds on iPSC-derived neurons (DIV45).

[2] = system: mouse cortical neurons; assay: Morphological integrity evaluation, NMDA 8 μM (MAP2 neurite length and branching); format: cell-based; conditions: 3 h pre-treatment, NMDA 8 μM 24 h; Z>0.5 criteria
In short: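 Mouse cortical neurons (14 DIV) pre-treated 3 h with compounds, then exposed 24 h to 8 μM NMDA; fixed, MAP2 immunostained with DAPI. Total neurite length and non-trunk branch number from 15 images/well, triplicates, converted to plate-based Z-scores; NAC positive, staurosporine and NMDA negative controls.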

[3] = system: LPC-induced demyelinated lesions of the mouse spinal cord; assay: LPC model of focal demyelination of the mouse spinal cord; format: in vivo
[4] = target: T1, S1R (Sigma 1 Receptor) (Rattus norvegicus, UniProt Q9R0C9); assay: CETSA target engagement in CG-4 cell lysates; format: binding; conditions: 100 μM, 15 minutes, 52-77° C.
T1 construct: endogenous in cells; host or cells: CG-4 oligodendrocyte cell line (rat), lysate
Description: FIG. 32. […] Samples were heated at increasing temperatures (52-77° C.) and the soluble fractions were subjected to western blot. […] The immunoblot is representative of 4 biological replicates. Band quantification was performed by ImageJ software and the signal intensity of the thermostable protein was normalized to the respective intensity at 52° C. Protein amount at the other temperatures is represented as % of protein at 52° C. Data are means±the standard error of biological quadruplicates measurements and their statistical significance was evaluated by the Student's t-test (*** p<0.001; **p<0.01; *p<0.05).

[5] = system: LPC lesions of MBP-deficient shiverer spinal cords transplanted with human iPSC-derived oligodendrocytes; assay: Remyelination in LPC lesions of shiverer spinal cords grafted with hiOLs; format: in vivo, mouse; conditions: gavage during 8 or 10 wkpg
Source text: FIG. 48. In vivo results of Bavisant treatment on remyelination in LPC lesions of MBP-deficient shiverer spinal cords transplanted with human iPSC-derived oligodendrocytes. […] Exogenous myelin is detected by MBP and endogenous myelin by MOG.

[6] = system: primary human A2B5+ pre-oligodendrocytes; assay: Ensheathment by primary human A2B5+ oligodendrocyte lineage cells; format: cell-based; conditions: for percentage of ensheathed O4+ cells: human adult A2B5+ cells, 14 days
Description: FIG. 49. […] The experiments were conducted using primary human oligodendrocyte lineage cells obtained from surgically derived tissue specimens. Specimens were derived either from adults or pediatric age groups. […] Percentages of ensheathed O4+ cells were calculated by the total ensheathed O4+ cells out of total O4+ cells. HA-human adult, HP-human pediatric. *p<0.05.

[7] = 30 mg/kg daily oral gavage, 14 dpi

T1 sequence (Q9R0C9 whole entry): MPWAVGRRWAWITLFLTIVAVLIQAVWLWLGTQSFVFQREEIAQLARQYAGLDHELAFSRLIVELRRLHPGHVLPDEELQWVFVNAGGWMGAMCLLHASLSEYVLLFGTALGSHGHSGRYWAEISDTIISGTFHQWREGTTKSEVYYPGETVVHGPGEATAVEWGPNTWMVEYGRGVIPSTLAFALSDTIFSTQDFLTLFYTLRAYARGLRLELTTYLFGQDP

With `O=C(NOC[C@H](O)CO)c1ccc(F)c(F)c1Nc1ccc(I)cc1F` [PD-0325901] the “viability compared to DMSO” value [1] was 65-80%.

For `NCCCC[C@H](NC(=O)[C@@H](Cc1cc(Br)c(O)c(Br)c1)NC(=O)N1CCC(N2Cc3ccccc3NC2=O)CC1)C(=O)N1CCN(c2ccncc2)CC1` [Olcegepant], the “preservation of neurite length and network integrity (branching)” value [2] was “preserved both neurite length and the network integrity (branching)”.

With `O=C(c1ccc(CN2CCOCC2)cc1)N1CCN(C2CC2)CC1` [Bavisant] the “density of Olig2+CC1+ differentiated oligodendrocytes in LPC lesions” value ([3]; 30 mg/kg daily oral gavage, 5 to 14 dpi, readout 14 dpi) was “significantly increased the density of mature oligodendrocytes”, the “% of remyelinated axons in the lesion” value [3, 7] was “significantly increased the number of remyelinated axons” and the “axonal density in LPC lesions” value [3, 7] was “not changes”. The G-ratio ([3]; control vs treated, p<0.0001) was “enhances remyelination in vivo”, the “thermostability of S1R (CETSA, western blot)” value [4] was “thermostability of S1R in the presence of Bavisant” and the “remyelination potential of grafted hiOLs (MBP)” value [5] was “has the tendency to promote the remyelination potential of hiOLs”. The “toxicity on dissociated cultures” value [6] was “No evidence of toxicity” and the “percentage of ensheathed O4+ cells” value [6] was “promote ensheathment of adult brain derived A2B5+ cells”.

In the case of `CC(=O)N1CCN([C@H]2CCN(C(=O)N(C)[C@H](C)c3cc(C(F)(F)F)cc(C(F)(F)F)c3)[C@@H](c3ccc(F)cc3C)C2)CC1` [Casopitant], the “toxicity on dissociated cultures” value [6] is reported as “No evidence of toxicity”, the “percentage of ensheathed O4+ cells” value [6] is reported as “promote ensheathment of adult brain derived A2B5+ cells” and the “viability compared to DMSO” value [1] is reported as 65-80%.
